According to patent US7235548B2, “Compounds and their use as positive AMPA receptor modulators” (NeuroSearch A/S, priority 1998, dated 2007):

Columns and labels:
[1] = system: AMPA induced [3H]GABA release from cultured cortical neurons; test: Potentiation of AMPA induced [3H]GABA release from cultured cortical neurons; type: cell-based, mouse; settings: 5 μM AMPA; expressed relative to potentiation induced by 30 μM cyclothiazide; FIGS. 1 and 2
Method: Neurons which express receptors for excitatory amino acids can be depolarized by such compounds and this depolariztion will ultimately lead to a release of transmitter substance from the neurons. Cultured neurons obtained from 16-day-old mouse embryo cortex are mainly GABAergic and express all types of excitatory amino acid receptors. This means that they can be stimulated by high potassium (55 mM) or by the excitatory amino acids NMDA (20 μM), AMPA (5 μM) and kainate (5 μM) to release their neurotransmitter GABA.
^3H-GABA may be used to label the GABA transmitter pool in the neurons and the release of ^3H-GABA from the neurons may be used as a simple functional model for studies of the effects of excitatory amino acid receptor agonists, antagonists, and modulators.
Cerebral cortices of 15–16 day-old NMRI mouse embryos are chopped in 0.4×0.4 mm cubes and the tissue is dissociated by mild trypsinization (0.1% (wt/vol) trypsin, 37° C., 10 min). Subsequently the cell suspension (3 mill/ml) is inoculated into poly-L-lysine-coated 30 mm Petri dishes (3 ml/dish) containing a slightly modified DMEM (24.5 mM KCl) supplemented with p-aminobenzoate (7 μM), insulin (100 mU/L) and 10% (vol/vol) horse serum. Cells are maintained in culture for 5–7 days with the addition of the antimitotic agent cytosine arbinoside (5 μM) from day 2 in vitro to prevent glial proliferation. […]

NMRI mice = test: Passive avoidance (associative memory); type: in vivo, mouse; settings: mice pre-treated before training, test after 24 hours; different concentrations; FIG. 17
Method: PURPOSE: To test the pharmacological effect of compounds on associative memory.
PRINCIPLE: A Mouse is placed in a light compartment with access to a dark compartment. If it enter the dark compartment it will receive a foot-shock (0.4 mA). After a delay (24 hours) the association to risk an unpleasant foot-shock by re-entering the dark compartment is tested.
ANIMALS: Female NMRI mice (Bomholdtgaard, DK) weighing 22–25 g were used. The mice were kept in Macrolon plastic cages with free access to food (Altromin, DK) and tap water. The mice were habituated to the laboratory for at least 3 days before testing (light on 7:00am/light off 7:00 pm).
EQUIPMENT: The passive avoidance apparatus consisted of a modular test chambers (ENV-307, MED-Associates, US). The light and the dark compartment consisted of plexiglas boxes of equal size (15×17×13 cm; width×length×height) with metal grid floors. A sliding guillotine door was located at the aperture (4×4 cm) connecting the two compartments. […]
[…]: Entry latency (sec) to re-enter the dark compartment was measured. […]
Training: One mouse is placed in the light compartment and the guillotine door to the dark compartment is opened. […] Test: After a delay (24 hours) the mouse will re-enter the light compartment and time latency to enter the dark compartment is measured with a time limit at 2 minutes. […]

In the case of `Cc1cc2c(cc1S(=O)(=O)N1CCCCC1)S(=O)(=O)NC(C1CCCC1)N2` (stereo not drawn) [Compound 114, 3-Cyclopentyl-6-methyl-7-piperidinosulfonyl-1,2,3,4-tetrahydro-1,2,4-benzothia-diazine-1,1-dioxide], the “potentiation of AMPA induced [3H]GABA release” value [1] is reported as “potentiation”.

In the case of `Cc1cc2c(cc1S(=O)(=O)N1CCOCC1)S(=O)(=O)NC(C1CCCCC1)N2` (stereo not drawn) [Compound 115, 3-Cyclohexyl-6-methyl-7-morpholinosulfonyl-1,2,3,4-tetrahydro-1,2,4-benzothiadiazine-1,1-dioxide], the “potentiation of AMPA induced [3H]GABA release” value [1] is reported as “potentiation”.

With `CN1CCN(S(=O)(=O)c2ccc3c(c2)S(=O)(=O)NC(C2CCCCC2)N3)CC1` (stereo not drawn) [Compound 61, 3-Cyclohexyl-7-(4′-methylpiperazino)sulfonyl-1,2,3,4-tetrahydro-1,2,4-benzothiadiazine-1,1-dioxide] the “entry latency to re-enter the dark compartment (memory)” value (NMRI mice) was “memory enhancing effect”.
